Laboratory results from patent publication US10533231B2, “Artificial bioluminescent enzyme” (NATIONAL INSTITUTE OF ADVANCED INDUSTRIAL SCIENCE AND …, priority 2012, dated 2020).
One block for each molecule: values may come before it.

How the values were obtained:
[1] = target: estrogen receptor (ER LBD) (Homo sapiens, UniProt P03372); details: 10^−5 M, 20 minutes, COS-7 cells with pSimer-r2, C16 one-shot buffer
[2] = target: T1, integrated-molecule-format bioluminescent probe with androgen receptor (Homo sapiens, UniProt P10275); assay: Effect of adding halogen ions, androgen probe (Example 2-5); type: cell-based; details: about 100 mM
T1 construct: an androgen receptor (AR LED) was inserted therebetween; expressed in transfected cells; host or cells: COS-7
T1 sequence (P10275 669-900 limits assumed): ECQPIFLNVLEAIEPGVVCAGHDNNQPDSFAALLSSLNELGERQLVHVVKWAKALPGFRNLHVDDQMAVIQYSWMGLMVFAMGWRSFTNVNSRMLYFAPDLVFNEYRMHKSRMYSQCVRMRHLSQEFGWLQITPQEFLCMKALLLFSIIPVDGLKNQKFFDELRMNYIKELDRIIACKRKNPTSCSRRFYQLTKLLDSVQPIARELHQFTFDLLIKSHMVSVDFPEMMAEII
Experimental: After 16-hour incubation in a CO2 incubator, 50 μL of a C3 solution was added to each well to allow for cell lysis for 20 minutes.

[3] = tested on: COS-7 cells; assay: Cytotoxic measurement using bioluminescent capsule containing ALuc16 (Example 1-13); type: cell-based; details: stimulated for two minutes, capsule SEQ ID NO: 19, LAS-4000
Experimental: The cytotoxicity of a chemical substance was measured using the bioluminescent capsule (SEQ ID NO: 19) containing ALuc 16 in its frame structure (FIG. 13). First, COS-7 cells were cultured in a 6-channel microslide, and a gene encoding SEQ ID NO: 19 was introduced into the cells, followed by culturing for another 16 hours. Subsequently, the cells were stimulated for two minutes with or without the cytotoxic substance (STS), and the luminescence image showing a bioluminescence intensity difference in a substrate-containing solution was evaluated using an LAS-4000 (FujiFilm).

[4] = tested on: COS-7 cells; assay: Toxicity of STS by change in luminescence spectrum (Example 1-12); type: cell-based, monkey; details: STS (1 μM) stimulation vs without, 10 minutes
Experimental: Using the luminescence measurement device of the present invention, the toxicity of a cell death-inducing chemical substance (STS) was measured based on changes in luminescence spectrum (see FIG. 12). First, monkey kidney-derived COS-7 cells were scattered in a commercially available microslide for cell culturing (produced by ibidi), and the cells were cultured until 90% of the microslide area was filled with the cells. The cells were transfected with a plasmid encoding a bioluminescence probe, followed by culturing for 24 hours. The cells cultured in the microslide were stimulated with or without STS (final concentration: […]) for 10 minutes.
The luminescence measurement was performed in the following manner. The microslide was washed once with an […] buffer, and a substrate-containing HBSS buffer (100 μL) was simultaneously introduced into each slide channel, and the microslide was mounted on the measurement device. After the device was covered with a mirror cap, the device was further mounted on a conventional spectrum meter (AB-1850; ATTO) (FIG. 12A). The luminescence spectrum from each channel was measured (two-minute light condensation, n=3, see FIG. 12B).

[5] = tested on: COS-7 cells; assay: Toxicity of STS with luminescence measurement device and luminometer (Example 1-11); type: cell-based, monkey; details: STS 1 μM, 10 minutes, membrane-localized probe
Experimental: Using the luminescence measurement device, the toxicity of a cell death-inducing chemical substance (STS) was measured (see FIG. 11). Monkey kidney-derived COS-7 cells were scattered in a commercially available microslide for cell culturing (produced by ibidi), and the cells were cultured until 90% of the microslide area was filled with the cells. The cells were transfected with a plasmid encoding a bioluminescence probe, followed by culturing for another 24 hours. The cells cultured in the microslide were stimulated with or without STS (final concentration: 1 μM) for 10 minutes (FIG. 11B).
The luminescence measurement was performed in the following manner. The microslide was washed once with an HBSS buffer, and a substrate-containing HBSS buffer (100 μL) was simultaneously introduced into each microslide channel, and the microslide was immediately fixed to the luminescent measurement device. […] The luminescence value was measured by changing the channels and the filters (three-second light condensation, n=3, see FIG. 11C).

[6] = tested on: EB3 cells expressing cSimgr13; assay: Stress hormone sensitivity of ES cells expressing cSimgr13 (Example 1-17); type: cell-based; details: 10^−5 M, 20 minutes
Experimental: Novel ES cells expressing cSimgr13, which is an integrated-molecule-format bioluminescent probe containing the ALuc of Example 10 in its frame structure were established to visualize stress hormone sensitivity (FIG. 17). First, EB3 cells, which are feeder-free embryonic stem cells (ES), were cultured in a 10 cm dish, and then a pcDNA3.1 (+) vector encoding cSimgr13 was introduced into the EB3 cells. In the presence of G418, transformed cells stably expressing cSimgr13 were established.
One day after the subculturing of the transformed cells in a microslide, some of the cells in the wells were used as a control (0.1% DMSO), and the others were stimulated with 10^−5 M stress hormone (cortisol) for 20 minutes. Subsequently, after lysis, the cells were illuminated using a substrate-containing assay buffer in accordance with the protocol of luminescence assay kit produced by Promega, and the luminescence intensity was measured using an LAS-4000.

[7] = tested on: artificial luciferase (ALuc); assay: Search for assay buffer compatible with C3 (Example 2-2); type: cell-based; details: C3 lysis; 8- and 16-minute point
Experimental: After 16-hour incubation in a CO2 incubator, 50 μL of a C3 solution was added to each well to allow for cell lysis for 20 minutes. Substrate-containing assay buffers shown in FIG. 24 were individually added simultaneously (50 μL each) to the lysate, and the relative luminescence intensities were immediately measured with an LAS-4000 (Fujifilm). After the substrate-containing assay buffers were further added, the luminescence at the 8- and 16-minute point was measured to examine the luminescence stability.

[8] = tested on: stress hormone receptor (glucocorticoid receptor ligand binding domain; GR HLBD); assay: Integrated-molecule-format bioluminescent probes, ALuc16 bisection sites (Example 1-10); type: cell-based; details: presence/absence of cortisol
Description: First, ALuc was bisected into two segments, and arranged right and left. A stress hormone receptor (glucocorticoid receptor ligand binding domain; GR HLBD) and its binding peptide (LXXLL motif) were respectively connected to the end of the two segments. As shown in the lower row of FIG. 10A, the working mechanism of the probe is such that a molecule is folded in the presence of a ligand, thus recovering the luminescence intensity.
In the bisection of ALuc16, the probes were named as cSimgr8 (SEQ ID NO: 21) to cSimgr14 according to its bisection point. The bisection point corresponding to each plasmid is as follows: cSimgr8 (125/126), cSimgr9 (129/130), cSimgr10 (133/134), cSimgr11 (137/138), cSimgr12 (137/138; containing a mutant at the joint portion), cSimgr13 (141/142), and cSimgr14 (146/147).

[9] = tested on: COS-7 cells; assay: Living cell imaging (Example 1-20); type: cell-based; details: HBSS buffer containing substrate
Experimental: (§1) First, COS-7 cells were cultured in a microslide produced by ibidi. After the cells were raised to a certain level, the following genes were transferred to the cells in the channels. Channel group 1: pcDNA3.1 plasmid having a gene encoding a luminescent enzyme derived from Renilla reniformis (RLuc8.6-535); Channel group 2: pcDNA3.1 plasmid having a gene encoding A16-KDEL; and Channel group 3: pcDNA3.1 plasmid having a gene encoding a luminescent capsule based on ALuc16 (i.e., A16-MLS).
After gene transfer, culturing was performed for another 16 hours. Immediately before imaging, the medium was substituted with an HBSS buffer containing a substrate, and the luminescence image obtained after the substitution was measured using an LAS-4000 (FujiFilm).

[10] = Luminescent capsule probe, luminescence stability and intensity (Example 1-7); type: cell-based; details: localized in the endoplasmic reticulum
Description: A “luminescent capsule” probe containing the artificial luciferase (ALuc) of the present invention in its frame structure was developed (FIG. 7). The basic molecular structure of the luminescent capsule of the present invention comprises an extracellular secretion signal (SP), ALuc, a suitable cargo protein (peptide), and a membrane localization signal. Because of the SP, the probe is first transferred to the endoplasmic reticulum, and then transferred from the endoplasmic reticulum to the plasma membrane. This probe is designed to finally localize in the plasma membrane by the function of MLS (FIG. 7 AB).
The luminescent capsule has the ability to localize a fluorescence protein (mPlum), other luciferases (RLuc8.6-535), and a peptide (DEVD sequence, etc.) in the plasma membrane. […] The luminescent reaction speed of the luminescent capsule after substrate injection was faster than those of other molecules (FIG. 7D). Further, the luminescent capsule containing a […] (SEQ ID NO: 19) was confirmed to have a different luminescent reaction speed according to the presence or absence of a cell death-inducing chemical substance (STS) (FIG. 7E). The luminescence stability of the luminescent capsule was also confirmed by using a microplate reader for luminescence measurement (FIG. 7F).

[11] = tested on: COS-7 cells; assay: Luminescence image of COS-7 cell lysate on microslide (Example 1-20); type: cell-based; details: Promega lysate and assay buffer
Experimental: as §1, with “Similarly,” for “First,”, “Cypridina luciferase;” for “a luminescent enzyme derived from Renilla reniformis (RLuc8.6-535);”, “A16” for “ALuc16”
After gene transfer, culturing was performed for another 16 hours. 20 minutes before imaging, 40 μL of a lysate buffer produced by Promega was added, and the resultant was allowed to stand for 20 minutes. Further, a substrate-containing assay buffer produced by Promega was added to the medium of each channel, and the luminescence image obtained after the addition was measured using an LAS-4000 (FujiFilm).

Chain of estrogen receptor (ER LBD) (P03372 311-547 limits assumed, species assumed): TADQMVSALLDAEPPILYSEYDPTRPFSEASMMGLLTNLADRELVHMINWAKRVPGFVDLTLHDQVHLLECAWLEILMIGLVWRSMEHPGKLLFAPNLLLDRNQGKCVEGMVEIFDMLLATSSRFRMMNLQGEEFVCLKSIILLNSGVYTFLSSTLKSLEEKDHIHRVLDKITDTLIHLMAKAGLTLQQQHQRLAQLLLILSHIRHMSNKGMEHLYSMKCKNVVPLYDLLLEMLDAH

- luminescence higher than the background [1]: about 5 folds
Molecule: 4-hydroxytamoxifen [OHT]

- effect of halogen ion addition [2]: excellent results
Molecule: [Br-].[K+] [KBr]

Molecule: CN[C@@H]1C[C@H]2O[C@@](C)([C@@H]1OC)n1c3ccccc3c3c4c(c5c6ccccc6n2c5c31)C(=O)NC4 [STS]
- luminescence intensity with vs without cytotoxic substance [3]: two folds higher
- change of luminescence spectrum [4]: increase in the luminescence intensity in the full wavelength
- increase of luminescence intensity [5]: about 75%

Molecule: C[C@]12CCC(=O)C=C1CC[C@@H]1[C@@H]2[C@@H](O)C[C@@]2(C)[C@H]1CC[C@]2(O)C(=O)CO [cortisol]
- luminescence vs control (0.1% DMSO) [6]: stronger luminescence than the control

Molecule: bovine serum albumin [BSA]
- luminescence stability with assay buffer [7]: the luminescence intensity and luminescence stability were poor

- S/N ratio of probe [8]: good S/N ratio
- absolute luminescence intensity of probe [8]: low absolute luminescence intensity
B1: cSimgr8: integrated-molecule-format bioluminescent probe, ALuc16 bisected at 125/126, SEQ ID NO: 21 (protein)
chain: MNALLRYLLDKDGSGIGEAIVDIPEIPGFKDLEPMEQFIAQVDLCVDCTTGCLKGLANVKCSDLLKKWLPSRCATFASKIQAQVDKIKGAGGLSGSGGNPTENKDDIDIVGVEGKFGTTDLETDLFTIVEDMNVISRDTDVDANRADRGRRGKLPGKKLPLEVLKELEANAQKAGCTRGCLICLSHIKCTAKMKKWLPGRCESWEGDKETGQGGGGGTMNLEARKTKKKIKGIQQATTGVSQETSENPGNKTIVPATLPQLTPTLVSLLEVIEPEVLYAGYDSSVPDSTWRIMTTLNMLGGRQVIAAVKWAKAIPGFRNLHLDDQMTLLQYSWMFLMAFALGWRSYRQSSANLLCFAPDLIINEQRMTLPCMYDQCKHMLYVSSELHRLQVSYEEYLCMKTLLLLSSVPKDGLKSQELFDEIRMTYIKELGKAIVKREGNSSQNWQRFYQLTKLLDSMHEVVENLLNYCFQTFLDKTMSIEFPEMLAEIITNQIPKYSNGNIKKLLFHQK
modifications: Synthetic cSimgr8 (single-chain probe)

B2: A16-KDEL: ALuc16 with KDEL, localized in the endoplasmic reticulum, SEQ ID NO: 18 (protein)
chain: MMGIKVLFALICFALVQANPTENKDDIDIVGVEGKFGTTDLETDLFTIVEDMNVISRDTDVDANRADRGRRGKLPGKKLPLEVLKELEANAQKAGCTRGCLICLSHIKCTAKMKKWLPGRCESWEGDKETGQGGIGEAIVDIPEIPGFKDLEPMEQFIAQVDLCVDCTTGCLKGLANVKCSDLLKKWLPSRCATFASKIQAQVDKIKGAGGSKDEL
modifications: KDEL ER retention signal; Synthetic KDEL-linked ALuc16
- luminescence image of living cells [9]: strong luminescence image
- luminescence intensity [10]: poor luminescence intensity
- luminescence of cell lysate [11]: strong luminescence
